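Cells were grown in 96-well plates and exposed to each compound for 48 hours at five concentrations; endpoints were interpolated linearly between bracketing concentrations, or set to the highest concentration if not reached. Definition used: TGI = concentration required for complete inhibition of growth.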
Tests used:
Test in all cases: DTP human tumour cell line panel, 48 h
U251 CNS = system: U251 CNS
SNB-19 CNS = system: SNB-19 CNS
CCRF-CEM leukemia = system: CCRF-CEM leukemia
MDA-MB-231 breast = system: MDA-MB-231 breast
HCT-116 colon = system: HCT-116 colon
PC-3 prostate = system: PC-3 prostate
UACC-257 melanoma = system: UACC-257 melanoma
MALME-3M melanoma = system: MALME-3M melanoma
DU-145 prostate = system: DU-145 prostate
T-47D breast = system: T-47D breast
HCC-2998 colon = system: HCC-2998 colon
MCF7 breast = system: MCF7 breast
SN12C renal = system: SN12C renal
COLO 205 colon = system: COLO 205 colon
HT29 colon = system: HT29 colon
OVCAR-3 ovarian = system: OVCAR-3 ovarian
NCI/ADR-RES ovarian = system: NCI/ADR-RES ovarian
KM12 colon = system: KM12 colon
SK-OV-3 ovarian = system: SK-OV-3 ovarian
SK-MEL-28 melanoma = system: SK-MEL-28 melanoma
NCI-H460 lung = system: NCI-H460 lung
UACC-62 melanoma = system: UACC-62 melanoma
NCI-H23 lung = system: NCI-H23 lung
NCI-H226 lung = system: NCI-H226 lung
K-562 leukemia = system: K-562 leukemia
SF-268 CNS = system: SF-268 CNS
M14 melanoma = system: M14 melanoma
A549 NSCLC = system: A549 NSCLC
SF-539 CNS = system: SF-539 CNS
BT-549 breast = system: BT-549 breast
OVCAR-5 ovarian = system: OVCAR-5 ovarian
HCT-15 colon = system: HCT-15 colon
SK-MEL-2 melanoma = system: SK-MEL-2 melanoma
MDA-MB-435 = system: MDA-MB-435
HOP-62 NSCLC = system: HOP-62 NSCLC
CAKI-1 renal = system: CAKI-1 renal
UO-31 renal = system: UO-31 renal
A498 renal = system: A498 renal
ACHN renal = system: ACHN renal
MOLT-4 leukemia = system: MOLT-4 leukemia
SNB-75 CNS = system: SNB-75 CNS
MDA-N = system: MDA-N
RPMI-8226 leukemia = system: RPMI-8226 leukemia
EKVX NSCLC = system: EKVX NSCLC
SF-295 CNS = system: SF-295 CNS
OVCAR-4 ovarian = system: OVCAR-4 ovarian
SW-620 colon = system: SW-620 colon
786-0 renal = system: 786-0 renal
OVCAR-8 ovarian = system: OVCAR-8 ovarian
HS 578T breast = system: HS 578T breast

Measured: TGI

CCOc1ccc2c(c1)/C(=C(\C(Cl)=C(Cl)Cl)[N+](=O)[O-])N2
> 100 µM: all assays above

From PubChem BioAssay (NCI)
